Results from paper PMC2824119 (Cancer Chemotherapy and Pharmacology, 2010).

How the values were obtained:
[1] = biological target: T1, CYP1A2 (Homo sapiens, UniProt P05177); conditions: azacitidine at 70 μM or lower concentrations
T1 sequence (P05177 1-516): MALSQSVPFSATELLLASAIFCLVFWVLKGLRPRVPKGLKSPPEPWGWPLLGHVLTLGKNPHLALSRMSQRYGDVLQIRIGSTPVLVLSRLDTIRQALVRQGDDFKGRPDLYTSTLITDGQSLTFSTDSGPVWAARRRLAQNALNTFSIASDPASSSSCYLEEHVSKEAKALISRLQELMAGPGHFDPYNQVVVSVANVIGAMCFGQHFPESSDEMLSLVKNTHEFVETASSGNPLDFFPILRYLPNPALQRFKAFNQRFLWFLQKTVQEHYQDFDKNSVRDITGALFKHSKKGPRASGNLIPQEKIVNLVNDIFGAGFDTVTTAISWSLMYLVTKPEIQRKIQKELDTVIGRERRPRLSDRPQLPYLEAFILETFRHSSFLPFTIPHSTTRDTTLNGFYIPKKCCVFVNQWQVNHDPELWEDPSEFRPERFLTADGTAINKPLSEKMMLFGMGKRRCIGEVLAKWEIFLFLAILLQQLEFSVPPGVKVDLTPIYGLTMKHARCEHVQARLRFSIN

[2] = biological target: CYP2E1 (Homo sapiens, UniProt P05181); test: CYP2E1 inhibition in human liver microsomes; format: in vitro ADME
Chain of CYP2E1 (P05181 whole entry): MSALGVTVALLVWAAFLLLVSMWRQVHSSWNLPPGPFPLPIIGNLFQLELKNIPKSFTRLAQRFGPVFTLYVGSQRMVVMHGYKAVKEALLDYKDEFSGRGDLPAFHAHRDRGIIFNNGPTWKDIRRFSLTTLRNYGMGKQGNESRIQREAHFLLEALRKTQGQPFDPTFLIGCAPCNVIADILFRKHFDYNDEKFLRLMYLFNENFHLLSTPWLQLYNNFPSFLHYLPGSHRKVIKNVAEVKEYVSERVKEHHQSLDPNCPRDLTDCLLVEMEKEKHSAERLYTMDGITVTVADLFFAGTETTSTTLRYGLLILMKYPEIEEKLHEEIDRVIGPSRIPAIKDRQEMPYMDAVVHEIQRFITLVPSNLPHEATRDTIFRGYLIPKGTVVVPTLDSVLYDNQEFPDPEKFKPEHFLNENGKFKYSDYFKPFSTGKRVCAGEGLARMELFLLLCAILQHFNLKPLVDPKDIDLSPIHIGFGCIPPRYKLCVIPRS

[3] = system: CYP3A4/5; conditions: hepatocytes
[4] = system: CYP1A2

Nc1ncn([C@@H]2O[C@H](CO)[C@@H](O)[C@H]2O)c(=O)n1 [Azacitidine]
Inhibition of CYP1A2 [1]: no inhibition
Inhibition of CYP2E1 ([2]; azacitidine at 70 μM or lower concentrations): no inhibition
Percent inhibition ([2]; azacitidine at 100 μM, chlorzoxazone 40 μM, HLM 0.8 mg/mL): < 30%
Induction of CYP3A4/5 activity [3]: did not induce
Decrease of CYP3A4/5-catalyzed testosterone 6β-hydroxylation ([3]; human): 78%
Decrease of CYP1A2-mediated 7-ethoxyresorufin O-dealkylation ([4]; azacitidine 100 μM, not statistically significant): 29%
Induction of CYP1A2 activity ([4]; clinically relevant concentrations, once daily for three consecutive days): did not induce
